Data on 4 compounds can be found in patent US7781005B2, “Sweetener composition” (Ajinomoto Co., Inc., priority 2004, dated 2010).

Data set [1] is described as follows: Photodecomposition of monatin in beverage model solution in PET container under D65 fluorescence lamp, HPLC. It is filed as physicochemical. The following applies: D65 lamp 3000 lux, 165 hr. The protocol: Temperature: 25° C. constant temperature room (forced circulation).
HPLC Analysis Conditions:
The pH of a beverage model solution, a (citric acid 2 g, sodium benzoate 0.045 g)/L solution, was adjusted with 8N sodium hydroxide. (2R, 4R)monatin potassium salt (25 mg) and various additives were dissolved in the adjusted beverage model solution (500 mL) and filled in PET containers. […] The solution was simultaneously filled in a 20 ml screw cap vial and left standing for the same time in the same constant temperature room under a light shield. These light exposure solutions and light shield solutions were subjected to HPLC analysis, and photodecomposition rates were calculated by the following formula: The photodecomposition rate (%)=(1−(mass % concentration of monatin in light exposure solution/mass % concentration of monatin in light shield solution))×100 […]

Data set [2] can be described thus: Decomposition of monatin in solution by ultraviolet light (findings of the inventor). The following applies: solution state. The format is physicochemical.

With `N[C@@H](Cc1c[nH]c2ccccc12)C(=O)O` [Trp, tryptophan, reference compound], the photodecomposition rate in data set [1] (pH 2.8, 50 ppm) stood at 7.3%; in data set [1] (pH 3.1, 50 ppm), 6.0%; in data set [1] (pH 3.5, 50 ppm) it was 6.2%; in data set [1] (pH 4, 50 ppm) it was 5.5%; in data set [1] (pH 4.5, 50 ppm) it was 5.4%; in data set [1] (pH 5.5, 50 ppm) it was 12.5%. Besides, the photodecomposition rate in data set [1] (pH 6.5, 50 ppm) was found to be 55.1%.
Turning to `N[C@@H](C[C@@](O)(Cc1c[nH]c2ccccc12)C(=O)O)C(=O)O` [monatin], the photodecomposition rate was determined as 52.5% in data set [1] (pH 2.8, 50 ppm); 45.1% in data set [1] (pH 3.1, 50 ppm); 27.6% in data set [1] (pH 3.5, 50 ppm); 15.9% in data set [1] (pH 4, 50 ppm); 10.2% in data set [1] (pH 4.5, 50 ppm); 4.8% in data set [1] (pH 5.5, 50 ppm). This compound gave a photodecomposition rate in data set [1] (pH 6.5, 50 ppm) of 4.3%. Further, the “decomposition by ultraviolet light” value in data set [2] is given as “tends to decompose when exposed to ultraviolet light”.
With (2R,4S)monatin, the “decomposition by ultraviolet light” value in data set [2] is reported as “tend to be more easily decomposed by ultraviolet light than the other isomers”.
The same measure, in the same setting: in the case of (2S,4R)monatin it was “tend to be more easily decomposed by ultraviolet light than the other isomers”.
